Reference: patent publication US8703424B2, “Predicting human developmental toxicity of pharmaceuticals using human stem-like cells and metabolomics” (Stemina Biomarker Discovery, Inc., priority 2010, dated 2014)

Tested on: WA09 hES cells
Test: Metabolomics of hES cells dosed in 96-well plates at three dose levels (Example 8)
Assay type: cell-based, human
Method: For metabolomic analysis, hES cells were dosed at the three concentrations for each chemical compound based on the cell viability data. Media controls (no cells), dosed media controls (no cells with dosed media), and controls (cells with undosed media) were also included in the experimental design (FIG. 1). Spent media was collected following a three day dosing period. The collected media was immediately quenched in acetonitrile then stored at −80° C. until later analysis.
In both the viability and metabolomics steps, 96-well plates were seeded with 250,000 cells/well of WA09 hES cells. These cells were “dosed” for three days. Each day for three days, the spent media was removed and replaced with […] media containing the designated compound. Each compound stock solution was made in DMSO and each final solution used to dose hES cells contained 0.1% DMSO. […]
Samples were analyzed in both ESI positive and ESI negative modes on an Agilent QTOF instrument, operated in high resolution, extended dynamic range mode. […]
Peak picking and feature creation were performed using the open source software library XCMS. Mass features (peaks) were detected using the centwave algorithm. […]
This filter selects against spurious low abundance features at the level of detection that are not reproducibly measured, and features that may not have peak shapes amenable to reproducible detection and/or integration. […]

Question: What does the source list for `CN(C)CCOC(C)(c1ccccc1)c1ccccn1` (centres unmarked) [Doxylamine]?
Answer: Dimethylarginine (DMA) change (at least two dose levels): increased secretion; Malic acid change (high dose levels): extreme fold changes
